Experimental data taken from PubChem BioAssay (NCI).
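Dose response: 5 concentrations. Exposure: 48 h. Format: 96-well plates. Endpoint: linear interpolation; highest concentration if not reached. TGI is the concentration that stops growth completely.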 Where a SMILES comes first, the peptide text is derived from it. The star is where a group is joined. Boc = CC(C)(C)OC(=O)*; OtBu = CC(C)(C)O*

Assays:
Test in all cases: NCI tumour cell line growth inhibition, 48 h
HCT-116 colon = test system: HCT-116 colon
MALME-3M melanoma = test system: MALME-3M melanoma
HOP-92 NSCLC = test system: HOP-92 NSCLC
NCI-H226 lung = test system: NCI-H226 lung
OVCAR-8 ovarian = test system: OVCAR-8 ovarian
SF-539 CNS = test system: SF-539 CNS
UACC-257 melanoma = test system: UACC-257 melanoma
SK-MEL-2 melanoma = test system: SK-MEL-2 melanoma
PC-3 prostate = test system: PC-3 prostate
SF-295 CNS = test system: SF-295 CNS

Row | SMILES | TGI (HCT-116 colon) [µM] | TGI (MALME-3M melanoma) [µM] | TGI (HOP-92 NSCLC) [µM] | TGI (NCI-H226 lung) [µM] | TGI (OVCAR-8 ovarian) [µM] | TGI (SF-539 CNS) [µM] | TGI (UACC-257 melanoma) [µM] | TGI (SK-MEL-2 melanoma) [µM] | TGI (PC-3 prostate) [µM] | TGI (SF-295 CNS) [µM]
1 | CC(C)C1CC(CO)(CNc2nc(N)nc(Cl)c2C=O)C1 (stereo not given) | 7.23 | 44.3 | 4.83 | 26.3 | 8.33 | 41.5 | 6.06 | 3.31 | 5.16 | 44.4
2 | CC(=O)OCCn1c(Cc2ccc(Cl)cc2)nn(C(C)=O)c1=O | > 100 | > 100 | > 100 | > 100 | > 100 | > 100 | > 100 | > 100 | > 100 | > 100
3 | O=c1oc2cc(O)ccc2c(O)c1C(c1ccc(/C=C/c2ccccc2)cc1)c1c(O)c2ccc(O)cc2oc1=O | > 100 | > 100 | > 100 | > 100 | > 100 | > 100 | > 100 | > 100 | > 100 | > 100
4 | COc1cc(CCNC2=CC(=O)c3ncccc3C2=O)ccc1O | > 34.4 | 1.98 | 42.7 | 6.62 | 14.3 | 7.83 | 4.28 | 9.79 | 22.5 | 4.02
5 | COc1nc2c(c(=O)[nH]1)N=C(c1ccc([N+](=O)[O-])cc1)CC(c1ccccc1)N2 (stereo not given) | > 100 | > 100 | > 100 | > 100 | > 100 | > 100 | > 100 | > 100 | > 100 | > 100
6 | CSc1ccc(/C=C2\N=C(c3ccccc3)N(NC(=O)c3c(Cl)c(Cl)c(Cl)c(Cl)c3-c3nc4ccccc4[nH]3)C2=O)cc1 | 83.3 | > 100 | 52.2 | > 100 | > 100 | > 100 | > 100 | > 100 | > 100 | > 100
7 | CC(C)(C)OC(=O)CC(NC(=O)OC(C)(C)C)C(=O)NC(Cc1ccccc1)C(N)=O (stereo not given) (Boc-Asp(OtBu)-Phe-NH2; configuration not given here) | > 100 | > 100 | > 100 | > 100 | > 100 | > 100 | > 100 | > 100 | > 100 | > 100
8 | Cc1ccc(Nc2nc3ccccc3nc2NS(=O)(=O)c2ccc(N)cc2)cc1 | > 100 | > 100 | > 100 | > 100 | > 100 | > 100 | > 100 | 81.9 | > 100 | > 100
9 | COc1ccccc1Nc1nc(N)nc(N)c1N | 39.8 | > 100 | > 100 | > 100 | > 100 | > 100 | > 100 | > 100 | > 100 | 68.5
10 | O=c1cc(O)c1=O | > 100 | > 100 | > 100 | > 100 | > 100 | > 100 | > 100 | > 100 | > 100 | > 100
11 | CCOC(=O)c1c2ccccc2n2c(=O)n(-c3ccccc3)nnc12 | > 100 | > 100 | > 100 | > 100 | > 100 | > 100 | > 100 | > 100 | > 100 | > 49.1
12 | COc1ccc(CC(COS(=O)(=O)c2ccc(C)cc2)NS(=O)(=O)c2ccc(C)cc2)cc1 (stereo not given) | > 48.4 | 27.3 | 19.9 | 27.7 | > 100 | > 100 | 67.1 | 44.7 | 38.9 | 33.6
13 | COc1cc(Nc2nc(NS(=O)(=O)c3cc(C)c(Cl)cc3S)n[nH]2)cc(OC)c1OC | > 100 | > 100 | > 100 | > 100 | > 100 | > 100 | > 100 | > 100 | > 100 | > 100
14 | COC(=O)c1nc2n(n1)-c1ccccc1C(=O)N(Cc1ccccc1)C2 | > 100 | > 100 | > 100 | > 100 | > 100 | > 100 | > 100 | > 100 | > 100 | > 100
15 | CCOC(=O)c1cn2c(n1)sc1cc([N+](=O)[O-])ccc12 | > 100 | > 100 | > 100 | > 100 | > 100 | > 100 | > 100 | > 100 | > 100 | > 100
16 | C[C@H]1CC(=O)C[C@@H]2CC[C@@H]3[C@H](CC[C@]4(C)C(OC(=O)c5cccc6c(=O)c7ccccc7[nH]c56)CC[C@@H]34)[C@]21C (stereo not given in full) | > 100 | > 100 | 70.8 | > 100 | 75.9 | > 100 | > 100 | > 100 | > 100 | > 100
17 | O=C1OCC2=C1C(c1ccc(Cl)cc1)c1cc3c(cc1O2)OCO3 (stereo not given) | > 34.6 | > 100 | > 100 | > 100 | > 100 | > 25.1 | > 100 | > 100 | > 100 | > 100
